In US20260200919A1, “SUBSTITUTED AMINOPYRIDINE COMPOUNDS AND METHODS OF TREATING DISEASE USING SAME” (Atavistik Bio, Inc., priority 2023, published 2026):

Assays:
[1] = target: T1, human recombinant kinase full-length wildtype AKT1 (Homo sapiens, UniProt P31749); test: AKT1 kinase assay (wildtype, TR-FRET, Lance); assay type: biochemical; settings: 0.6 nM wildtype AKT1, 50 nM Ulight-CREBtide, either 50 μM ATP or 2 mM ATP (not specified which), 60 min at RT
T1 construct: Purified human recombinant kinase full-length wildtype AKT1 was expressed in insect cells; made in house; host or cells: insect cells
T1 sequence (P31749 whole entry): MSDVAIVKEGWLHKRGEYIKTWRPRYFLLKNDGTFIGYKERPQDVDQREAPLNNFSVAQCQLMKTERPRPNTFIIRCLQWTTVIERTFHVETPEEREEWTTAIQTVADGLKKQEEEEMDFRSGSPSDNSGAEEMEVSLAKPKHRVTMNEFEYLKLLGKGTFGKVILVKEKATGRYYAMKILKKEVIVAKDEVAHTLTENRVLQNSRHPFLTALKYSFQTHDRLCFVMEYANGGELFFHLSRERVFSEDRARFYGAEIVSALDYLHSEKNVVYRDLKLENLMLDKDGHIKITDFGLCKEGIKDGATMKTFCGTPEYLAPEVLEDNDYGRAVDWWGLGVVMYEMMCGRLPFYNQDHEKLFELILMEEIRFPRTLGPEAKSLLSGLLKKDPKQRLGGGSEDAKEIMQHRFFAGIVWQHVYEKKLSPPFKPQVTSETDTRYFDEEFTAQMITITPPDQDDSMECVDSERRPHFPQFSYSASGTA
Method: AKT1 kinase assay: Inhibitory effects of compounds on wildtype AKT1 were undertaken in a 10-pt dose response kinase activity assay measuring phospho-peptide product formation based on TR-FRET signal as described in the following paragraph.
(§1) Purified human recombinant kinase full-length wildtype AKT1 was expressed in insect cells and activated in vitro by PDPK1. Ulight™—CREBtide (PerkinElmer, catalog number TRF0107) was used as the peptide substrate. The reaction buffer consisted of 50 mM HEPES pH 7.5, 10 mM MgCl2, 0.01% Triton X-100, 0.01% BSA, 2 mM DTT, 0.6 nM AKT1, 50 nM Ulight™-CREBtide and either 50 μM ATP or 2 mM ATP. The compound solution was prepared as 10 mM DMSO stock. […] Final DMSO concentration in the assay was 1%. […] The reaction was stopped after 60 min of incubation at RT by the addition of 10 μL of Detection Mix (PerkinElmer, #CR97-100) consisting of Europium-anti-phospho-CREB (Ser133) (Perkin Elmer, catalog numberTRF0200). Incubation with the detection mix for a further 60 min allowed binding of antibody to the phospho-Ulight™ CREBtide. The fluorescence emissions at 620 nm and 665 nm after excitation at […] was measured using Envision reader. The ratio of the emissions at 665 nm and at 620 nm provided the measure for the amount of phosphorylated CREBtide product of AKT1 kinase activity.

[2] = target: T2, human recombinant kinase full-length AKT1 E17K (Homo sapiens, UniProt P31749, E17K); test: AKT1 E17K kinase assay (TR-FRET, Lance); assay type: biochemical; settings: 0.6 nM AKT1 E17K, 50 nM Ulight-CREBtide, either 50 μM ATP or 2 mM ATP (not specified which), 60 min at RT
T2 construct: Purified human recombinant kinase full-length AKT1 E17K was expressed in insect cells; made in house; host or cells: insect cells
T2 sequence (P31749 whole entry E17K): as the sequence (P31749 whole entry) above, with E17K counted along it
Method: AKT1 E17K kinase assay: Inhibitory effects of compounds on AKT1 E17K were undertaken in a 10-pt dose response kinase activity assay measuring phospho-peptide product formation based on TR-FRET signal as described in the following paragraph.
as §1, with “full-length” for “full-length wildtype”, “AKT1 E17K” for “AKT1”, “Ulight™-CREBtide” for “Ulight™—CREBtide”, “AKT1 E17K,” for “AKT1,”, “nM. Ulight™ CREBtide” for “nM Ulight™-CREBtide”

Structure (SMILES) | IC50 [1] | IC50 [2]
Cc1cc(C(=O)O)ccc1C(=O)Nc1ccc(-n2c(-c3cccnc3N)nc3ccc(-c4ccccc4)nc32)cc1F [Compound 66, 4-((4-(2-(2-aminopyridin-3-yl)-5-phenyl-3H-imidazo[4,5-b]pyridin-3-yl)-2-fluorophenyl)carbamoyl)-3-methylbenzoic acid] | > 500 nM | 200 to 500 nM
CC(C(=O)O)c1ccc(C(=O)NCc2ccc(-n3c(-c4cccnc4N)nc4ccc(-c5ccccc5)nc43)cc2)cc1 (stereo not shown) [Compound 35, 2-(4-((4-(2-(2-aminopyridin-3-yl)-5-phenyl-3H-imidazo[4,5-b]pyridin-3-yl)benzyl)carbamoyl)phenyl) propanoic acid] | < 500 nM | < 50 nM
Nc1ncccc1-c1nc2ccc(-c3ccccc3)nc2n1-c1ccc(CNC(=O)c2cccc(CC(=O)O)c2)nc1 [Compound 48, 2-(3-(((5-(2-(2-aminopyridin-3-yl)-5-phenyl-3H-imidazo[4,5-b]pyridin-3-yl)pyridin-2-yl)methyl)carbamoyl)phenyl)acetic acid] | > 500 nM | > 500 nM
Nc1ncccc1-c1nc2ccc(-c3ccccc3)nc2n1-c1ccc(NC(=O)c2cccc(C(=O)O)c2F)nc1 [Compound 61, 3-((5-(2-(2-aminopyridin-3-yl)-5-phenyl-3H-imidazo[4,5-b]pyridin-3-yl)pyridin-2-yl)carbamoyl)-2-fluorobenzoic acid] | < 500 nM | 50 to 200 nM
Nc1ncccc1-c1nc2ccc(-c3ccccc3)nc2n1-c1ccc(CNC(=O)c2cccc(CC(=O)O)c2F)cc1 [Compound 34, 2-(3-((4-(2-(2-aminopyridin-3-yl)-5-phenyl-3H-imidazo[4,5-b]pyridin-3-yl)benzyl)carbamoyl)-2-fluorophenyl)acetic acid] | < 500 nM | 200 to 500 nM
Nc1ncccc1-c1nc2ccc(-c3ccccc3)nc2n1-c1ccc(NCc2ccc(C(=O)O)cc2)cc1 [Compound 58, 4-[[4-[2-(2-amino-3-pyridyl)-5-phenyl-imidazo[4,5-b]pyridin-3-yl]anilino]methyl]benzoic acid] | < 500 nM | 50 to 200 nM
Nc1ncccc1-c1nc2ccc(-c3ccccc3)nc2n1-c1ccc(C(=O)NCc2cccc(CC(=O)O)c2)cc1 [Compound 52, 2-(3-((4-(2-(2-aminopyridin-3-yl)-5-phenyl-3H-imidazo[4,5-b]pyridin-3-yl)benzamido)methyl)phenyl)acetic acid] | > 500 nM | > 500 nM
Nc1ncccc1-c1nc2ccc(-c3ccccc3)nc2n1-c1ccc(CNC(=O)c2cc(F)cc(C(=O)O)c2)cc1 [Compound 21, 3-((4-(2-(2-aminopyridin-3-yl)-5-phenyl-3H-imidazo[4,5-b]pyridin-3-yl)benzyl)carbamoyl)-5-fluorobenzoic acid] | < 500 nM | < 50 nM
Nc1ncccc1-c1nc2ccc(-c3ccccc3)nc2n1-c1ccc(NC(=O)c2ccc(C(=O)O)cc2F)nc1 [Compound 62, 4-((5-(2-(2-aminopyridin-3-yl)-5-phenyl-3H-imidazo[4,5-b]pyridin-3-yl)pyridin-2-yl)carbamoyl)-3-fluorobenzoic acid] | < 500 nM | 50 to 200 nM
Nc1ncccc1-c1nc2ccc(-c3ccccc3)nc2n1-c1ccc(NCc2ccc(C(=O)O)cc2F)nc1 [Compound 68, 4-[[[5-[2-(2-amino-3-pyridyl)-5-phenyl-imidazo[4,5-b]pyridin-3-yl]-2-pyridyl]amino]methyl]-3-fluoro-benzoic acid] | < 500 nM | 50 to 200 nM

Next, values leading:

IC50 [1] | IC50 [2] | Structure (SMILES)
< 500 nM | < 50 nM | Nc1ncccc1-c1nc2ccc(-c3ccccc3)nc2n1-c1ccc(C2CN(C(=O)c3ccc(C(=O)O)cc3F)C2)cc1 [Compound 76, 4-(3-(4-(2-(2-aminopyridin-3-yl)-5-phenyl-3H-imidazo[4,5-b]pyridin-3-yl)phenyl)azetidine-1-carbonyl)-3-fluorobenzoic acid]
< 500 nM | 50 to 200 nM | Nc1ncccc1-c1nc2ccc(-c3ccccc3)nc2n1-c1ccc(C2CN(C(=O)c3cccc(C(=O)O)c3F)C2)cc1 [Compound 78, 3-(3-(4-(2-(2-aminopyridin-3-yl)-5-phenyl-3H-imidazo[4,5-b]pyridin-3-yl)phenyl)azetidine-1-carbonyl)-2-fluorobenzoic acid]
< 500 nM | > 500 nM | Nc1ncccc1-c1nc2cc(C(F)(F)F)cnc2n1-c1ccc(CNC(=O)c2ccc(C(=O)O)cc2)cc1 [Compound 98, 4-((4-(2-(2-aminopyridin-3-yl)-6-(trifluoromethyl)-3H-imidazo[4,5-b]pyridin-3-yl)benzyl)carbamoyl)benzoic acid]
< 500 nM | 50 to 200 nM | CC(=O)Nc1ccc(-c2cnc3c(c2)nc(-c2cccnc2N)n3-c2ccc(CNC(=O)c3cccc(CC(=O)O)c3)cc2)cc1 [Compound 84, 2-(3-((4-(6-(4-acetamidophenyl)-2-(2-aminopyridin-3-yl)-3H-imidazo[4,5-b]pyridin-3-yl)benzyl)carbamoyl)phenyl) acetic acid]
< 500 nM | > 500 nM | COC(=O)c1ccc([C@@H](C)N2CC(c3ccc(-n4c(-c5cccnc5N)nc5ccc(-c6ccccc6)nc54)cc3)C2)cc1 (single isomer, unassigned) [Compound 157]
> 500 nM | > 500 nM | Nc1ncccc1-c1nc2ccc(C(F)(F)F)cc2n1-c1ccc(CNC(=O)c2cccc(C(=O)O)c2F)cc1 [Compound 106, 3-((4-(2-(2-aminopyridin-3-yl)-6-(trifluoromethyl)-1H-benzo[d]imidazol-1-yl)benzyl)carbamoyl)-2-fluorobenzoic acid]
< 500 nM | < 50 nM | Cc1nc(NC(=O)c2ccc(C(=O)O)cc2)ccc1-n1c(-c2cccnc2N)nc2ccc(-c3ccccc3)nc21 [Compound 153]
< 500 nM | < 50 nM | Nc1ncccc1-c1nc2ccc(-c3ccccc3)nc2n1-c1ccc(C2CN(C(=O)c3ccc(C(=O)O)cc3)C2)cc1 [Compound 70, 4-(3-(4-(2-(2-aminopyridin-3-yl)-5-phenyl-3H-imidazo[4,5-b]pyridin-3-yl)phenyl)azetidine-1-carbonyl)benzoic acid]
< 500 nM | < 50 nM | Nc1ncccc1-c1nc2ccc(-c3ccccc3)nc2n1-c1ccc(NC(=O)c2ccc(C(=O)O)c(F)c2)nc1 [Compound 117]
< 500 nM | 200 to 500 nM | Nc1ncccc1-c1nc2ccc(-c3cccnc3)nc2n1-c1ccc(CNC(=O)c2cccc(CC(=O)O)c2)cc1 [Compound 96, 2-(3-((4-(2-(2-aminopyridin-3-yl)-5-(pyridin-3-yl)-3H-imidazo[4,5-b]pyridin-3-yl)benzyl)carbamoyl)phenyl) acetic acid]
< 500 nM | > 500 nM | CC(c1ccc(C(=O)O)cc1)N1CCCC(c2ccc(-n3c(-c4cccnc4N)nc4ccc(-c5ccccc5)nc43)cc2)C1 (stereo not shown) [Compound 170, 4-(1-(3-(4-(2-(2-aminopyridin-3-yl)-5-phenyl-3H-imidazo[4,5-b]pyridin-3-yl)phenyl)piperidin-1-yl)ethyl)benzoic acid]
< 500 nM | 50 to 200 nM | Cc1nc(NC(=O)c2ccc(C(=O)O)cc2F)ccc1-n1c(-c2cccnc2N)nc2ccc(-c3ccccc3)nc21 [Compound 148]
< 500 nM | > 500 nM | COC(=O)CCc1ccc(C(=O)NCc2ccc(-n3c(-c4cccnc4N)nc4cc(-c5cccnc5)cnc43)cc2)cc1 [Compound 91, methyl 3-(4-((4-(2-(2-aminopyridin-3-yl)-6-(pyridin-3-yl)-3H-imidazo[4,5-b]pyridin-3-yl)benzyl)carbamoyl)phenyl) propanoate]
